Test results reported in patent US20140329863A1 (priority 2011, published 2014).
Like-named read-outs stand apart in the source and are kept apart here.

What was measured:
[1] = test system: PrP^C in T98G cells; format: cell-based, human; conditions: read-out: EC50 (μM) ELISA potency, PrP^C in T98G cells
[2] = test system: PrP^Sc in nondividing ScN2a-cl3 cells; format: cell-based, mouse; conditions: for Inhibition of Baseline PrP^5c (%) Non-dividing Cells ELISA: SPC assay, nondividing cells
[3] = test system: PrP^Sc in dividing ScN2a-cl3 cells; format: cell-based, mouse; parameters: Dividing ELISA pEC50 (μM) 1st Expt. / Dividing ELISA pEC50 (μM) 2nd Expt. / Dividing ELISA pEC50 (μM) 3rd Expt. / Dividing ELISA pEC50 (μM) Mean: unit not given here; conditions: for Inhibition of Baseline PrP^5c (%) Dividing Cells ELISA: SPC assay
[4] = test system: N2a-cl3 cells

Structure (SMILES)	EC50 [1] [µM]	Inhibition of Baseline PrP^5c (%) Non-dividing Cells ELISA [2] [%]	Inhibition of Baseline PrP^5c (%) Dividing Cells ELISA [3] [%]	Non-dividing Cells V (cell viability percentages) [4] [%]	other results
CCN(CC)c1ccc2c(c1)OC(N)=C(C#N)C2c1ccccc1 (stereo not drawn) [IND126322]	0.174				
CCOC(=O)c1[nH]c2c(c1C)C(=O)CC(c1ccccc1Cl)C2 (stereo not drawn) [IND126429]	0.497				
COC(=O)c1[nH]c2c(c1C)C(=O)CC(c1cccs1)C2 (stereo not drawn) [IND73602]	0.521				
Cc1cc(C)c(S(=O)(=O)NCc2ccncc2)c(C)c1 [IND18762]	4.13				
O=C(Nc1ccncc1)C1CCCN1S(=O)(=O)c1ccc2ccccc2c1 (stereo not drawn) [IND86287]	2.65				
CCOc1ccc2c(c1)C(C)=CC(C)(C)N2S(=O)(=O)c1ccc(C)cc1 [IND16365]	0.304				
CC1=CC(C)(C)N(S(=O)(=O)c2ccc(C)cc2)c2cc(C)ccc21 [IND5418]	0.649				
COc1ccc(Cl)cc1C(=O)N1CC(=O)Nc2ccccc21 [IND116063]	0.647				
N#Cc1c(NC(=O)CCc2cccs2)sc2c1CCCC2 [IND82865]	0.242				
O=C(Nc1ccc(I)cn1)c1cccc(F)c1 [IND84911]	0.55				
COc1ccccc1C(=O)N1CCN(c2ccccc2OC)CC1 [IND116050]	0.887				
Cc1nc2ncccn2c1-c1csc(Nc2ccc(Cl)cc2)n1 [IND115948]	1.85				
COc1cc(C(=O)c2cc(Cl)ccc2N)cc(OC)c1OC [IND1323]	0.085				
c1ccc2cc(Nc3nc(-c4ccncc4)cs3)ncc2c1 [compound 32]					EC50 ([2]; read-out: Non-Dividing ELISA EC50 (μM) Mean (n = 3), ScN2a-c13 non-dividing cells, mean n = 3): > 32 µM; Dividing ELISA pEC50 (μM) 1st Expt. ([3]; ScN2a-cl3 dividing cells, 1st determination): 6.58; EC50 ([3]; ScN2a-cl3 dividing cells, 1st determination, read-out: Dividing ELISA EC50 (μM) 1st Expt.): 0.261 µM; Dividing ELISA pEC50 (μM) 2nd Expt. ([3]; ScN2a-cl3 dividing cells, 2nd determination): 6.56; EC50 ([3]; ScN2a-cl3 dividing cells, 2nd determination, read-out: Dividing ELISA EC50 (μM) 2nd Expt.): 0.277 µM; Dividing ELISA pEC50 (μM) 3rd Expt. ([3]; ScN2a-cl3 dividing cells, 3rd determination): 6.42; EC50 ([3]; ScN2a-cl3 dividing cells, 3rd determination, read-out: Dividing ELISA EC50 (μM) 3rd Expt.): 0.383 µM; Dividing ELISA pEC50 (μM) Mean ([3]; ScN2a-cl3 dividing cells, mean of three determinations): 6.52; EC50 ([3]; ScN2a-cl3 dividing cells, mean of three determinations, read-out: Dividing ELISA EC50 (μM) Mean): 0.307 µM; EC50 ([4]; read-out: Dividing Calcein EC50 (μM) Mean (n = 3)): > 32 µM
O=C(Nc1ccccc1)Nc1ccc(F)c(Cl)c1 [IND-8314]		56	87	17	Dividing Cells V (cell viability percentages) [4]: 7%
O=C(Nc1ccc(Cl)c(Cl)c1)NC(CC(=O)c1ccc([N+](=O)[O-])cc1)C(Cl)(Cl)Cl (stereo not drawn) [IND-10851]		61	83	19	Dividing Cells V (cell viability percentages) [4]: 15%
CNCCc1c(-c2ccccc2)n(-c2ccccc2)c2ccccc12 [IND-10094]		46	81	21	Dividing Cells V (cell viability percentages) [4]: 19%
O=C(Nc1ccc(Cl)cc1)Nc1cc(Cl)cc(Cl)c1 [IND-5942]		51	91	8	Dividing Cells V (cell viability percentages) [4]: 3%
Cc1ccn2c(-c3csc(Nc4ccc(N(C)C)nc4)n3)c(C)nc2c1 [IND9756]	0.18				
CCc1nnc(NC(=O)c2ccoc2COc2ccccc2)s1 [IND85692]	2.28				
COc1ccc(Cl)cc1NS(=O)(=O)c1ccc(N2CCCC2=O)cc1 [IND126331]	0.684				
CCOC(=O)c1[nH]c(C)c(C(=O)c2ccc(C)cc2)c1C [IND5672]	0.593				
CC(=O)c1ccc(N2CCN(Cc3ccccc3Cl)CC2)cc1 [IND-19130]		41	86	2	Dividing Cells V (cell viability percentages) [4]: 5%
COc1ccc(CN2CCN(c3ccc(C(C)=O)cc3)CC2)c(C)c1C [IND-17848]		41	95	24	Dividing Cells V (cell viability percentages) [4]: 1%
CC(=O)c1ccc(N2CCN(CC(C)CCC=C(C)C)CC2)cc1 (stereo not drawn) [IND-18721]		55	78	10	
Clc1ccc(N2CCN(C3CCSC3)CC2)cc1 (stereo not drawn) [IND-19847]		51	42	3	
